Laboratory results reported in PMC12118597 (Science Advances, 2025).
Where “and” joins values, the source holds several entries; their conditions need not be identical. Equal entries are not always repeated. Where two headings read alike, the source gives them in different places.

Target: SARS-CoV-2 NSP3 macrodomain (Mac1) (Severe acute respiratory syndrome coronavirus 2, UniProt P0DTD1)
Format: binding
[1] = PanDDA background density correction factor
[2] = TRUE = crystal structure with ligand obtained
[3] = crystal soak 10 mM, P43 crystal form
[4] = crystal soak 10 mM; DMSO background map
[5] = ligand conformations modeled in the crystal structure
[6] = refined crystallographic occupancy
[7] = site of ligand in X-ray crystal structure
[8] = DMSO background map; event 1; soak concentration 10 mM
[9] = DMSO background map; soak concentration 10 mM
[10] = TRUE = ligand-bound crystal structure obtained (PDB code given)
[11] = crystal soak concentration 20 mM, DMSO background map
[12] = crystal soak concentration 20 mM, DMSO background map, event 1
[13] = crystal soak concentration 20 mM, P43 crystals
[14] = crystal soak, P43 crystals; soak concentration 10 mM
[15] = crystal soak, P43 crystals; soak concentration 10 mM for the hits shown
[16] = site of Mac1 occupied in the X-ray crystal structure (Adenosine or Distal)
[17] = soak concentration 10 mM, DMSO background map
[18] = soak concentration 10 mM, P43 crystals
[19] = ligand-bound crystal structure obtained (TRUE)
[20] = site occupied in X-ray crystal structure

| SMILES | Occupancy difference (refined_occupancy - 2*(1-BDC)) | 1-BDC [1] | X-ray crystal structure [2] | PanDDA run, overall: Hit [3] | PanDDA run, overall: Modeled [3] | PanDDA run, DMSO background map: 1-BDC [4] | PanDDA run, DMSO background map: Hit [4] | Total number of conformations [5] | 2*(1-BDC) (%) (occupancy estimate from PanDDA) | Refined ligand occupancy (%) [6] [%] | Binding site [7] | further results |
| --- | --- | --- | --- | --- | --- | --- | --- | --- | --- | --- | --- | --- |
| OCC(CC1CCC1)Nc1ncnc2[nH]ccc12 (stereo not shown) [AVI-3641] | 0 | 0.18 | TRUE | TRUE | TRUE | 0.18 | TRUE | 1 | 36 | 36 | Adenosine |  |
| O=C(O)C(F)(F)F.O[C@H]1CCC[C@@H]1Nc1ncnc2[nH]ccc12 [AVI-3639] | 0 | 0.11 | TRUE | TRUE | TRUE | 0.11 | TRUE | 1 | 22 | 22 | Adenosine |  |
| CC1CC(C(=O)O)CCN1C(=O)c1ccc2c(c1)OCC(=O)N2 (stereo not shown) [AVI-303] | 0 | 0.13 |  |  |  |  |  | 1 | 26 | 26 |  | PanDDA run, DMSO background map: 1-BDC [8]: 0.13; PanDDA run, DMSO background map: Hit [9]: TRUE; PanDDA run, DMSO background map: Modeled [9]: TRUE; X-ray crystal structure [10]: TRUE; Hit (PanDDA run, DMSO background map) [11]: TRUE; 1-BDC (PanDDA run, DMSO background map) [12]: 0.19; Hit (PanDDA run, overall) [13]: TRUE; Modeling comment (PanDDA run, overall) [13]: Duplicate, not modeled; PanDDA run, overall: Modeled [14]: TRUE; PanDDA run, overall: Hit [15]: TRUE; Binding site [16]: Adenosine |
| CC1CCN(C(=O)c2ccc3c(c2)nc(CO)n3C)CC1C(=O)O (stereo not shown) [AVI-348] | 0 | 0.25 |  |  |  |  |  | 1 | 50 | 50 |  | X-ray crystal structure [10]: TRUE; Hit (PanDDA run, DMSO background map) [11]: TRUE; 1-BDC (PanDDA run, DMSO background map) [12]: 0.34; Hit (PanDDA run, overall) [13]: TRUE; Modeling comment (PanDDA run, overall) [13]: Duplicate, not modeled; Binding site [16]: Adenosine; PanDDA run, DMSO background map: 1-BDC [17]: 0.25; PanDDA run, DMSO background map: Hit [17]: TRUE; PanDDA run, DMSO background map: Modeled [17]: TRUE; PanDDA run, overall: Hit [18]: TRUE; PanDDA run, overall: Modeled [18]: TRUE |
| OC[C@@H]1C[C@H](F)CN1c1ncnc2[nH]ccc12 [AVI-609] | 0 | 0.17 |  | TRUE |  | 0.17 | TRUE | 1 | 34 | 34 |  | X-ray crystal structure [19]: TRUE; Binding site [20]: Adenosine |
| OCC(Nc1ncnc2[nH]ccc12)C1CCc2ccccc21 (stereo not shown) [AVI-3693] | 16 | 0.22 | TRUE | TRUE | TRUE | 0.22 | TRUE | 2 | 44 | 60 | Adenosine |  |
| CCC(Nc1ncnc2[nH]ccc12)C(C)O (stereo not shown) [AVI-3635] | 0 | 0.14 | TRUE | TRUE | TRUE | 0.23 and 0.14 | TRUE | 2 | 28 | 28 | Adenosine |  |
| Cc1nn(C)cc1C1CC[C@H](CO)N1c1ncnc2[nH]ccc12 (stereo partly shown) [AVI-3733] | 20 | 0.1 |  | TRUE | TRUE | 0.1 | TRUE | 1 | 20 | 40 |  | X-ray crystal structure [19]: TRUE; Binding site [20]: Adenosine |
| Nc1nnc(SCCn2c(=O)oc3ccccc32)s1 [AVI-296] | 0 | 0.06 |  |  |  |  |  | 1 | 12 | 12 |  | PanDDA run, DMSO background map: 1-BDC [8]: 0.06; PanDDA run, DMSO background map: Hit [9]: TRUE; PanDDA run, DMSO background map: Modeled [9]: TRUE; X-ray crystal structure [10]: TRUE; PanDDA run, overall: Modeled [14]: TRUE; PanDDA run, overall: Hit [15]: TRUE; Binding site [16]: Distal |
| CC1(C)CCC(CO)N(c2ncnc3[nH]ccc23)C1 (stereo not shown) [AVI-3726] | 0 | 0.17 |  | TRUE |  | 0.17 | TRUE | 3 | 34 | 34 |  | X-ray crystal structure [19]: TRUE; Binding site [20]: Adenosine |
| NC(=O)C1(O)CCN(c2ncnc3[nH]ccc23)C1 (stereo not shown) [AVI-611] | 0 | 0.22 | TRUE | TRUE |  | 0.22 | TRUE | 2 | 44 | 44 |  | Binding site (site of Mac1 occupied in the X-ray crystal structure): Adenosine |
| O=C(O)C1CCCN1S(=O)(=O)c1cccc2nsnc12 (stereo not shown) [AVI-2] | 10 | 0.2 |  |  |  |  |  | 1 | 40 | 50 |  | PanDDA run, DMSO background map: 1-BDC [8]: 0.2; PanDDA run, DMSO background map: Hit [9]: TRUE; PanDDA run, DMSO background map: Modeled [9]: TRUE; X-ray crystal structure [10]: TRUE; Hit (PanDDA run, DMSO background map) [11]: TRUE; 1-BDC (PanDDA run, DMSO background map) [12]: 0.22; Hit (PanDDA run, overall) [13]: TRUE; Modeling comment (PanDDA run, overall) [13]: Duplicate, not modeled; PanDDA run, overall: Modeled [14]: TRUE; PanDDA run, overall: Hit [15]: TRUE; Binding site [16]: Adenosine |
| CN(C)C[C@@]1(O)CCCN(c2ncnc3[nH]ccc23)C1 [AVI-614] |  |  |  | TRUE |  | 0.17 | TRUE |  |  |  |  | PanDDA run, overall: Modeling comment (crystal soak 10 mM): Weak density, not modeled |
| CC(O)C(C)Nc1ncnc2[nH]ccc12 (stereo not shown) [AVI-5158] |  |  | TRUE |  |  |  |  |  | 34 |  | Adenosine | 1-BDC (PanDDA background density correction, 1-BDC): 0.17; Refined ligand occupancy (%) (crystallographic refinement): 34% |
| OCC(CC1CCCCC1)Nc1ncnc2[nH]ccc12 (stereo not shown) [AVI-3690] | 0 | 0.12 | TRUE | TRUE | TRUE | 0.12 | TRUE | 1 | 24 | 24 | Adenosine | PanDDA run, overall: Modeling comment [3]: Weak density for alternative ligand conformation |
